Among the data in patent publication US8604061B2, “2-aminooxazolines as TAAR1 ligands” (Hoffmann-La Roche Inc., priority 2007, dated 2013) are Ki values, retold here.

SMILES strings stand for the structures.

For the first assay, the target named is TAAR1 (Mus musculus, UniProt Q923Y8). The assay is described as follows: TAAR1 radioligand binding, membranes of stably transfected HEK293 cells (mouse).
Settings: not given
Here is the method:
For the construction of expression plasmids the coding sequences of human, rat and mouse TAAR 1 were amplified from genomic DNA essentially as described by Lindemann et al.. The Expand High Fidelity PCR System (Roche Diagnostics) was used with 1.5 mM Mg^2+ and purified PCR products were cloned into pCR2.1-TOPO cloning vector (Invitrogen) following the instructions of the manufacturer. PCR products were subcloned into the pIRESneo2 vector (BD Clontech, Palo Alto, Calif.), and expression vectors were sequence verified before introduction in cell lines.
HEK293 cells (ATCC #CRL-1573) were cultured essentially as described Lindemann et al. (2005). For the generation of stably transfected cell lines HEK293 cells were transfected with the pIRESneo2 expression plasmids containing the TAAR coding sequences (described above) with Lipofectamine 2000 (Invitrogen) according to the instructions of the manufacturer, and 24 hrs post transfection the culture medium was supplemented with 1 mg/ml G418 (Sigma, Buchs, Switzerland). After a culture period of about 10 d clones were isolated, expanded and tested for responsiveness to trace amines (all compounds purchased from Sigma) with the cAMP Biotrak Enzyme immunoassay (EIA) System (Amersham) following the non-acetylation EIA procedure provided by the manufacturer.
Cells at confluence were rinsed with ice-cold phosphate buffered saline without Ca^2+ and Mg^2+ containing 10 mM EDTA and pelleted by centrifugation at 1000 rpm for 5 min at 4° C. The pellet was then washed twice with ice-cold phosphate buffered saline and cell pellet was frozen immediately by immersion in liquid nitrogen and stored until use at −80° C. Cell pellet was then suspended in 20 ml HEPES-NaOH (20 mM), pH 7.4 containing 10 mM EDTA, and homogenized with a Polytron (PT 3000, Kinematica) at 10,000 rpm for 10 s. The homogenate was centrifuged at 48,000×g for 30 min at 4° C. and the pellet resuspended in 20 ml HEPES-NaOH (20 mM), pH 7.4 containing 0.1 mM EDTA (buffer A), and homogenized with a Polytron at 10,000 rpm for 10 s. The homogenate was then centrifuged at 48,000×g for 30 min at 4° C. and the pellet resuspended in 20 ml buffer A, and homogenized with a Polytron at 10,000 rpm for 10 s. Protein concentration was determined by the method of Pierce (Rockford, Ill.). The homogenate was then centrifuged at 48,000×g for 10 min at 4° C., resuspended in HEPES-NaOH (20 mM), pH 7.0 including MgCl2 (10 mM) and […] homogenized with a Polytron at 10,000 rpm for 10 s.
Binding assay was performed at 4° C. in a final volume of 1 ml, and with an incubation time of 30 min. […] Non-specific binding was defined as the amount of [^3H]-rac-2-(1,2,3,4-tetrahydro-1-naphthyl)-2-imidazoline bound in the presence of the appropriate unlabelled ligand (10 μM). Competing ligands were tested in a wide range of concentrations (10 pM-30 μM). […] Each experiment was performed in duplicate. All incubations were terminated by rapid filtration through UniFilter-96 plates (Packard Instrument Company) and glass filter GF/C, pre-soaked for at least 2 h in polyethylenimine 0.3%, and using a Filtermate 96 Cell Harvester (Packard Instrument Company). The tubes and filters were then washed 3 times with 1 ml aliquots of cold buffer B. Filters were not dried and soaked in Ultima gold (45 μl/well, Packard Instrument Company) and bound radioactivity was counted by a TopCount Microplate Scintillation Counter (Packard Instrument Company).
Take `NC1=NC(c2ccc(-c3ccccc3)cc2)CO1` (racemic) [Example 10, (RS)-4-Biphenyl-4-yl-4,5-dihydro-oxazol-2-ylamine]: the Ki is 0.0025 µM.

`Cc1ccc(Cl)cc1C1COC(N)=N1` (racemic) [Example 272, (RS)-4-(5-Chloro-2-methyl-phenyl)-4,5-dihydro-oxazol-2-ylamine] yielded a Ki of 0.0013 µM.

In the case of `NC1=NC(c2ccc(Br)cc2)CO1` (racemic) [Example 20, (RS)-4-(4-Bromo-phenyl)-4,5-dihydro-oxazol-2-ylamine], the Ki came out at 0.0009 µM.

Regarding `NC1=NC(c2ccc(Cl)cc2C2CC2)CO1` (racemic) [Example 359, (RS)-4-(4-Chloro-2-cyclopropyl-phenyl)-4,5-dihydro-oxazol-2-ylamine], the Ki amounted to 0.0021 µM.

`Cc1c(F)cccc1C1COC(N)=N1` (racemic) [Example 365, (RS)-4-(3-Fluoro-2-methyl-phenyl)-4,5-dihydro-oxazol-2-ylamine] registered a Ki of 0.0029 µM.

The compound `NC1=NC(c2ccc(Br)cc2Cl)CO1` (racemic) [Example 291, (RS)-4-(4-Bromo-2-chloro-phenyl)-4,5-dihydro-oxazol-2-ylamine] registered a Ki of 0.0008 µM.

For the compound `Cc1ccc(F)cc1C1COC(N)=N1` (racemic) [Example 250, (RS)-4-(5-Fluoro-2-methyl-phenyl)-4,5-dihydro-oxazol-2-ylamine], the Ki came out at 0.0022 µM.

The assay is the same for the next values; noted with them: mouse/rat; cell not marked 'rat'; radioligand [3H]-rac-2-(1,2,3,4-tetrahydro-1-naphthyl)-2-imidazoline, 4° C.; read-out: Ki (μM) mouse/rat.
Consider `NC1=N[C@@H](COc2ccccc2F)CO1` [Example 354, (S)-4-(2-Fluoro-phenoxymethyl)-4,5-dihydro-oxazol-2-ylamine], for which the Ki was determined as 0.0003 µM.

As to `NC1=N[C@@H](c2cc(F)cc(Cl)c2)CO1` [Example 178, (S)-4-(3-Chloro-5-fluoro-phenyl)-4,5-dihydro-oxazol-2-ylamine], the Ki was 0.0004 µM.

Consider `C[C@]1(c2ccc(Br)cc2)COC(N)=N1` [Example 231, (S)-4-(4-Bromo-phenyl)-4-methyl-4,5-dihydro-oxazol-2-ylamine], for which the Ki stood at 0.0025 µM.

With `C[C@H](C[C@H]1COC(N)=N1)c1ccccc1` [82 (S, R), (S)-4-((R)-2-Phenyl-propyl)-4,5-dihydro-oxazol-2-ylamine], the Ki was determined as 0.0016 µM.

As to `NC1=N[C@H](CCc2ccc(Cl)c(Cl)c2)CO1` [Example 124, (R)-4-[2-(3,4-Dichloro-phenyl)-ethyl]-4,5-dihydro-oxazol-2-ylamine], the Ki is 0.0044 µM.

Regarding `NC1=N[C@@H](c2cc(F)c(F)c(F)c2)CO1` [Example 170, (S)-4-(3,4,5-Trifluoro-phenyl)-4,5-dihydro-oxazol-2-ylamine], the Ki amounted to 0.0011 µM.

As for `NC1=N[C@@H](COc2ccc(F)cc2F)CO1` [Example 353, (S)-4-(2,4-Difluoro-phenoxymethyl)-4,5-dihydro-oxazol-2-ylamine], the Ki was found to be 0.0014 µM.

Take `CCC(C[C@H]1COC(N)=N1)c1cc(F)cc(Cl)c1` (stereo partly drawn) [Example 357, (S)-4-[2-(3-Chloro-5-fluoro-phenyl)-butyl]-4,5-dihydro-oxazol-2-ylamine]: the Ki worked out at 0.0068 µM.

`C[C@]1(c2ccc(Cl)c(Cl)c2)COC(N)=N1` [Example 135, (S)-4-(3,4-Dichloro-phenyl)-4-methyl-4,5-dihydro-oxazol-2-ylamine]: the Ki amounted to 0.0009 µM.

With `NC1=N[C@@H](COc2cccc(Cl)c2)CO1` [Example 343, (S)-4-(3-Chloro-phenoxymethyl)-4,5-dihydro-oxazol-2-ylamine], the Ki was found to be 0.0028 µM.

Turning to `CC(C[C@H]1COC(N)=N1)c1ccccc1F` (stereo partly drawn) [Example 217, (S)-4-[2-(2-Fluoro-phenyl)-propyl]-4,5-dihydro-oxazol-2-ylamine], the Ki was found to be 0.0015 µM.

As for `NC1=N[C@@H](CSc2ccccc2)CO1` [Example 195, (R)-4-Phenylsulfanylmethyl-4,5-dihydro-oxazol-2-ylamine], the Ki came to 0.0018 µM.

In the case of `Cc1cc(CC[C@H]2COC(N)=N2)ccc1F` [Example 140, (S)-4-[2-(4-Fluoro-3-methyl-phenyl)-ethyl]-4,5-dihydro-oxazol-2-ylamine], the Ki is 0.001 µM.

For the compound `CCC(C[C@H]1COC(N)=N1)c1ccc(F)c(Cl)c1` (stereo partly drawn) [Example 356, (S)-4-[2-(3-Chloro-4-fluoro-phenyl)-butyl]-4,5-dihydro-oxazol-2-ylamine], the Ki turned out to be 0.0043 µM.

As for `CCC(C[C@H]1COC(N)=N1)c1cc(F)cc(F)c1` (stereo partly drawn) [Example 203, (S)-4-[2-(3,5-Difluoro-phenyl)-butyl]-4,5-dihydro-oxazol-2-ylamine], the Ki came to 0.0039 µM.

As to `NC1=N[C@@H](CCc2cccc(C(F)(F)F)n2)CO1` [Example 212, (S)-4-[2-(6-Trifluoromethyl-pyridin-2-yl)-ethyl]-4,5-dihydro-oxazol-2-ylamine], the Ki came out at 0.0068 µM.

As to `C[C@]1(c2ccc(C(F)(F)F)cc2F)COC(N)=N1` [Example 215, (S)-4-(2-Fluoro-4-trifluoromethyl-phenyl)-4-methyl-4,5-dihydro-oxazol-2-ylamine], the Ki was determined as 0.0024 µM.

For the compound `NC1=N[C@@H](c2cc(F)cc(F)c2)CO1` [Example 176, (S)-4-(3,5-Difluoro-phenyl)-4,5-dihydro-oxazol-2-ylamine], the Ki was determined as 0.002 µM.

Turning to `NC1=N[C@@H](c2cc(Cl)ccc2C(F)(F)F)CO1` [Example 341, (+)-(S)-4-(5-Chloro-2-trifluoromethyl-phenyl)-4,5-dihydro-oxazol-2-ylamine], the Ki stood at 0.0046 µM.

`NC1=N[C@@H](c2ccc(F)c(Br)c2F)CO1` [Example 29 (S), (S)-4-(3-Bromo-2,4-difluoro-phenyl)-4,5-dihydro-oxazol-2-ylamine]: the Ki was 0.0054 µM.

For `COc1ccc([C@H]2COC(N)=N2)cc1C` [Example 129, (S)-4-(4-Methoxy-3-methyl-phenyl)-4,5-dihydro-oxazol-2-ylamine], the Ki came to 0.0029 µM.

On to `C[C@]1(CCc2ccccc2Cl)COC(N)=N1` [Example 228, (S)-4-[2-(2-Chloro-phenyl)-ethyl]-4-methyl-4,5-dihydro-oxazol-2-ylamine], for which the Ki was found to be 0.004 µM.

For `CC(C[C@H]1COC(N)=N1)c1ccc(C(F)(F)F)cc1` (stereo partly drawn) [Example 165, (S)-4-[2-(4-Trifluoromethyl-phenyl)-propyl]-4,5-dihydro-oxazol-2-ylamine], the Ki was determined as 0.0012 µM.

As for `CCC(C[C@H]1COC(N)=N1)c1cc(Cl)ccc1F` (stereo partly drawn) [Example 358, (S)-4-[2-(5-Chloro-2-fluoro-phenyl)-butyl]-4,5-dihydro-oxazol-2-ylamine], the Ki came to 0.0084 µM.

`NC1=N[C@H](c2cc(Cl)c(Cl)cc2C(F)(F)F)CO1` [Example 243, (−)-(R)-4-(4,5-Dichloro-2-trifluoromethyl-phenyl)-4,5-dihydro-oxazol-2-ylamine]: the Ki came out at 0.0094 µM.

`CC(C[C@H]1COC(N)=N1)c1cccc(C(F)(F)F)c1` (stereo partly drawn) [Example 193, (S)-4-[2-(3-Trifluoromethyl-phenyl)-propyl]-4,5-dihydro-oxazol-2-ylamine]: the Ki turned out to be 0.0043 µM.

In the case of `NC1=N[C@@H](CCc2ccc(Cl)cc2)CO1` [Example 256, (S)-4-[2-(4-Chloro-phenyl)-ethyl]-4,5-dihydro-oxazol-2-ylamine], the Ki turned out to be 0.0006 µM.

Turning to `NC1=N[C@@H](CCc2cccc(C(F)(F)F)c2)CO1` [Example 120, (S)-4-[2-(3-Trifluoromethyl-phenyl)-ethyl]-4,5-dihydro-oxazol-2-ylamine], the Ki was found to be 0.0014 µM.
